Patent US20170137387A1, “PHARMACOLOGICALLY ACTIVE QUINAZOLINEDIONE DERIVATIVES” (ORION CORPORATION, priority 2014, published 2017)

Experiments:
[1] = target: T1, human GABAB1 and GABAB2 receptor subunits (Homo sapiens, UniProt O75899+Q9UBS5); assay: Agonism and positive allosteric modulator pharmacology in vitro, two-addition FLIPR calcium assay; assay type: cell-based; conditions: CHO cells co-expressing Galpha16; for IA (GABAB agonism): agonism efficacy at 30 μM / GABA efficacy at 30 μM; for IA (GABAB positive allosteric modulation): positive allosteric modulator efficacy at 10 μM (with EC10.5 GABA) / GABA efficacy at 30 μM
T1 construct: expressed in transfected cells; host or cells: CHO cells
Procedure: (§1) CHO cells expressing the human GABAB1 and GABAB2 receptor subunits co-expressing promiscuous Galpha16 proteins to force couple the receptor to the intracellular calcium signalling pathway were used to study GABAB pharmacology in vitro. The cells were maintained at 37° C. in a 5% CO2 95% air atmosphere in HAM F-12 medium supplemented with 10% foetal bovine serum and selection antibiotics.
(§2) The day before the experiment the cells were detached and plated into black-walled clear bottom 384-well plates at a cell density of 20 000 cells per well. The growth medium was removed and the cells were incubated with FLIPR Calcium 5 Assay reagent (Molecular Devices, CA, USA) diluted 1:1 in Probenecid-Ringer for 1 h at 37° C. in dark. Probenecid-Ringer buffer consisted of 150 mM NaCl, 3 mM KCl, 1.2 mM MgCl2, 1 mM CaCl2, 5 mM glucose, 20 mM 2-(4-(2-hydroxyethyl)piperazin-1-yl)ethanesulfonic acid (HEPES), and 2.5 mM Probenecid (pH 7.4 adjusted with 1.0 M NaOH and osmolarity adjusted to […]). Compounds were dissolved in Probenecid-Ringer. […] The samples were excited at 470-495 nm and emission was detected at 515-575 nm. All experiments were performed at 37° C.
A two-addition protocol was used to determine agonism and positive allosteric modulator pharmacology in the same assay using a kinetic read out. Agonism pharmacology of compounds was studied in the first addition in the concentration range 0.123-30 μM in quadruplicate at each concentration. In the second addition, a low (EC10.5) concentration of GABA was applied to detect the positive allosteric modulator pharmacology of the compounds to be studied. The EC10.5 concentration was determined from the GABA EC50 value using the formula ECF≈(F/(100-F))^1/H·EC50, wherein F is the fraction of full response and H is Hill slope.
(§3) Baseline fluorescence minimum was subtracted from maximum for the calculation of agonism and positive allosteric modulator pharmacology. Both in the agonism mode and in the allosteric mode, the efficacy was related to the intrinsic activity (IA) of the endogenous agonist GABA at 30 μM (positive allosteric modulator efficacy at 10 μM/GABA efficacy or agonism efficacy at 30 μM/GABA efficacy). To determine potentiation of GABA dose-response, the compounds, at a concentration of 10 μM diluted in Probenecid-Ringer, were added by FLIPR tetra followed by addition of GABA (diluted in water in the concentration range 0.123-10 μM). The EC50 values were determined using a four-parameter logistic fit (model 205 in ActivityBase XE). The EC50 value of GABA was divided with the EC50 value of GABA in the presence of positive allosteric modulator to determine potentiation of GABA dose-response EC50 value.

[2] = target: T1, human GABAB1 and GABAB2 receptor subunits; assay: Potentiation of GABA dose-response, FLIPR calcium assay; assay type: cell-based; conditions: compound at 10 μM; EC50 of GABA divided by EC50 of GABA in the presence of positive allosteric modulator
Procedure: as §1, §2, §3

T1 sequence (Q9UBS5 15-961 limits assumed): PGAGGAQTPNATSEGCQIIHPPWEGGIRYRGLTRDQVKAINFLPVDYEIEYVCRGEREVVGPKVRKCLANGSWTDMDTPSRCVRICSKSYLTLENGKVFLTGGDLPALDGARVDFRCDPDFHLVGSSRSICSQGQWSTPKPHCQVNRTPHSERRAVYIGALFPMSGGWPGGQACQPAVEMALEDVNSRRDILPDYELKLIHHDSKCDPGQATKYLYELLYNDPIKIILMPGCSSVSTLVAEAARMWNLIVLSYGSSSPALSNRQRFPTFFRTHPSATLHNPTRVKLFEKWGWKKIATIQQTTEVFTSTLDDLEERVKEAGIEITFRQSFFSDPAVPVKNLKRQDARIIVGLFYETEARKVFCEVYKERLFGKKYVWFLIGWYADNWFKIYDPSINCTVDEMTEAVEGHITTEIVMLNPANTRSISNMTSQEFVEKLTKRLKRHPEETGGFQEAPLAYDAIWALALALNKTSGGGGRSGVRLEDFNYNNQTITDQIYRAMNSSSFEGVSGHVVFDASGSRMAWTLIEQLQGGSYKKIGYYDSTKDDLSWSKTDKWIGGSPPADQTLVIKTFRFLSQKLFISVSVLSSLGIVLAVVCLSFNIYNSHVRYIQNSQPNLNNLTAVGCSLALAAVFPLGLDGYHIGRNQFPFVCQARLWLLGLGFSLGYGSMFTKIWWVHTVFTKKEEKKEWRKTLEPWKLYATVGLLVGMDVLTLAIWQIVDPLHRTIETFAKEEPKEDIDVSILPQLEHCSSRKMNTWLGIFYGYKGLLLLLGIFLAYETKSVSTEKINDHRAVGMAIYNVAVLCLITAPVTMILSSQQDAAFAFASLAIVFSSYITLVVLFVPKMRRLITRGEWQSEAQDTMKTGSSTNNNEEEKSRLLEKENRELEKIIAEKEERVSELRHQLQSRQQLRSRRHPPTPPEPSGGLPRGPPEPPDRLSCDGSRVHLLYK
T1 sequence (O75899 42-941): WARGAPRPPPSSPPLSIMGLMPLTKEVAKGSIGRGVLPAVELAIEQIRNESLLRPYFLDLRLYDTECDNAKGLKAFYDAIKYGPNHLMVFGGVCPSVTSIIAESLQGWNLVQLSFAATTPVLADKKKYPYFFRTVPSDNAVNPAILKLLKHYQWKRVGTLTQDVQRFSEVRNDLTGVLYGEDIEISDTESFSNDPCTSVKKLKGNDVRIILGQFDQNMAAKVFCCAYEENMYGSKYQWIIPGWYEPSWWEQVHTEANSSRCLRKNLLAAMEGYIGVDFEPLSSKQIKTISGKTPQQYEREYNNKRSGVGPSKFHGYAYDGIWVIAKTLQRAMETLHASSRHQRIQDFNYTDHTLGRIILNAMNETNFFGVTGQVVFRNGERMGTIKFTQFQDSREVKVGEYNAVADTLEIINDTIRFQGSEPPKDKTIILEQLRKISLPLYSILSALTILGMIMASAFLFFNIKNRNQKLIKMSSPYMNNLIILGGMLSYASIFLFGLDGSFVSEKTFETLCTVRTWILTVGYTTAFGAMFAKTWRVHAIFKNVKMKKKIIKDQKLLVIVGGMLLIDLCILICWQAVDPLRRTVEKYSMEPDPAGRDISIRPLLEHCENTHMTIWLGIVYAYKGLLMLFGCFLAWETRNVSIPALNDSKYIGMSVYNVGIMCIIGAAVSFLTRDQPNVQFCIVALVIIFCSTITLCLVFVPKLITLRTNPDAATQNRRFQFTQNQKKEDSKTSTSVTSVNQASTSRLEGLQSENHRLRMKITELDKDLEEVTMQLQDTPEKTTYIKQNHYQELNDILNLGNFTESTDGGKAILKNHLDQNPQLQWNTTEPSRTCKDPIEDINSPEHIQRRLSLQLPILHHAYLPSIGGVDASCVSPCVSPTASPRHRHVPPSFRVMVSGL

| SMILES | IA (GABAB agonism) [1] | IA (GABAB positive allosteric modulation) [1] | Potentiation of GABA (fold) [2] |
| --- | --- | --- | --- |
| COc1c(F)cc2c(=O)n(Cc3ccc(Br)cc3)c(=O)n3c2c1OC(C)(C)C3 [Example 84, 6-(4-Bromobenzyl)-9-fluoro-10-methoxy-2,2-dimethyl-2H-[1,4]oxazino[2,3,4-ij]quinazoline-5,7(3H,6H)-dione] | 0.10 | 0.86 | 33.4 fold |
| CC(C)(O)Cn1c(=O)n(Cc2ccc(Cl)c(Oc3ccccc3)c2)c(=O)c2ccc(F)cc21 [Example 41, 3-(4-Chloro-3-phenoxybenzyl)-7-fluoro-1-(2-hydroxy-2-methylpropyl)quinazoline-2,4(1H,3H)-dione] | 0.10 | 0.47 | 2.8 fold |
| CC1(C)Cn2c(=O)n(Cc3ccc(Cl)cc3)c(=O)c3ccc(Cl)c(c32)O1 [Example 67, 10-Chloro-6-(4-chlorobenzyl)-2,2-dimethyl-2H-[1,4]oxazino[2,3,4-ij]quinazoline-5,7(3H,6H)-dione] | 0.02 | 0.71 | 9.5 fold |
| CC1(C)Cn2c(=O)n(Cc3ccc(Br)cc3)c(=O)c3cc(F)c(F)c(c32)O1 [Example 66, 6-(4-Bromobenzyl)-9,10-difluoro-2,2-dimethyl-2H-[1,4]oxazino[2,3,4-ij]quinazoline-5,7(3H,6H)-dione] | 0.04 | 0.77 | 12.7 fold |
| Cn1c(=O)n(Cc2ccc(Br)cc2)c(=O)c2ccc(Cl)cc21 [Example 18, 3-(4-Bromobenzyl)-7-chloro-1-methylquinazoline-2,4(1H,3H)-dione] | 0.06 | 0.43 | 1.6 fold |
